According to patent US20210335449A1, “Method or System for Identification of a Causative Mutation Causing a Phenotype of Interest in a Test Sample” (Oxford University Innovation Limited, priority 2018, published 2021):

System: Marchantia polymorpha wild-type plants
Assay: Chlorsulfuron resistance determination (survival two weeks after exposure to a lethal dose)
Assay type: in vivo
Settings: 0.1 ppm dose (lethal dose); survival assessed two weeks following exposure
Method: Marchantia polymorpha spores were irradiated with ultraviolet B irradiation and seven independent mutant lines resistant to the herbicide chlorsulfuron were identified. Chlorsulfuron resistance was determined by a Marchantia polymorpha plant that was alive two weeks following exposure to a lethal dose of Chlorsulfuron (0.1 ppm dose, i.e. a dose sufficient to kill 100% of wild-type plants).

SMILES: COc1nc(C)nc(NC(=O)NS(=O)(=O)c2ccccc2Cl)n1 [Chlorsulfuron]
- wild-type plants killed: 100%
